According to patent publication US12485115B2, “Biased NMDA receptor modulators and uses thereof” (EDWARD VIA COLLEGE OF OSTEOPATHIC MEDICINE, priority 2018, dated 2025):
Read-outs that look alike come from different tables or passages of the source. Blank lines part the entries; values can stand above or below the molecule they belong to.

Columns and labels:
Assay type in all cases: cell-based
[1] = target: GluN1/2A (Homo sapiens, UniProt Q05586+Q12879); test: NMDA receptor subunit selectivity of CNS004 analogs, average response, 1/2A; details: compound 100 μM
[2] = target: GluN1/2B (Homo sapiens, UniProt Q05586+Q13224); test: NMDA receptor subunit selectivity of CNS004 analogs, average response, 1/2B; details: compound 100 μM
[3] = target: GluN1/2A/2B (TH) (Homo sapiens, UniProt Q05586+Q12879+Q13224); test: NMDA receptor subunit selectivity of CNS004 analogs, average response, TH; details: compound 100 μM
[4] = target: T1, GluN1/2A NMDA receptor (Homo sapiens, UniProt Q05586+Q12879); test: Two-electrode voltage clamp (TEVC), Xenopus oocytes expressing recombinant GluN1/2A
Description: (§1) Two-electrode voltage clamp)TEVC) and patch clamp electrophysiology techniques were used to study CNS004 induced changes in NMDA receptor functions. Briefly, appropriate combinations of cRNA encoding different NMDA receptor subunits were injected into Xenopus oocytes and incubated at about 18° C. for about 2-4 days before TEVC assays. TEVC assays were performed with a −60 mV holding potential. […]

[5] = target: GluN1/2B NMDA receptor (Homo sapiens, UniProt Q05586+Q13224); test: Two-electrode voltage clamp (TEVC), Xenopus oocytes expressing recombinant GluN1/2B
Description: as §1

[6] = target: GluN1/2A/2B triheteromeric NMDA receptor (Homo sapiens, UniProt Q05586+Q12879+Q13224); test: Two-electrode voltage clamp (TEVC), Xenopus oocytes expressing recombinant GluN1/2A/2B
Description: Briefly, appropriate combinations of cRNA encoding different NMDA receptor subunits were injected into Xenopus oocytes and incubated at about 18° C. for about 2-4 days before TEVC assays. TEVC assays were performed with a −60 mV holding potential.

[7] = target: GluN1/2C NMDA receptor (Homo sapiens, UniProt Q05586+Q14957); test: Two-electrode voltage clamp (TEVC), Xenopus oocytes expressing recombinant GluN1/2C; details: 10 μM glycine and 10 μM glutamate; EC50 ND, n=6
Description: as §1

[8] = target: GluN1/2D NMDA receptor (Homo sapiens, UniProt O15399+Q05586); test: Two-electrode voltage clamp (TEVC), Xenopus oocytes expressing recombinant GluN1/2D; details: 10 μM glycine and 10 μM glutamate; EC50 ND, n=5
Description: as §1

[9] = target: T1, GluN1/2A NMDA receptor; test: Patch clamp electrophysiology, HEK293T cells expressing recombinant GluN1/2A; details: 100 μM CNS004
Description: (§2) Patch clamp electrophysiology was also performed. Briefly, HEK293T cells were transfected with cDNA encoding NMDA receptor subunits 18-24 hours prior to patch clamp procedures. The effect of CNS004 on the agonist induced NMDA receptor function was evaluated at −80 mV.

[10] = target: T2, GluN1/2A/2B NMDA receptor (Homo sapiens, UniProt Q05586+Q12879+Q13224); test: Patch clamp electrophysiology, HEK293T cells expressing recombinant GluN1/2A/2B
T2 construct: expressed in transfected cells; host or cells: HEK293T
Description: as §2

GluN1/2B, sequence (Q13224 27-1484, other chains not shown): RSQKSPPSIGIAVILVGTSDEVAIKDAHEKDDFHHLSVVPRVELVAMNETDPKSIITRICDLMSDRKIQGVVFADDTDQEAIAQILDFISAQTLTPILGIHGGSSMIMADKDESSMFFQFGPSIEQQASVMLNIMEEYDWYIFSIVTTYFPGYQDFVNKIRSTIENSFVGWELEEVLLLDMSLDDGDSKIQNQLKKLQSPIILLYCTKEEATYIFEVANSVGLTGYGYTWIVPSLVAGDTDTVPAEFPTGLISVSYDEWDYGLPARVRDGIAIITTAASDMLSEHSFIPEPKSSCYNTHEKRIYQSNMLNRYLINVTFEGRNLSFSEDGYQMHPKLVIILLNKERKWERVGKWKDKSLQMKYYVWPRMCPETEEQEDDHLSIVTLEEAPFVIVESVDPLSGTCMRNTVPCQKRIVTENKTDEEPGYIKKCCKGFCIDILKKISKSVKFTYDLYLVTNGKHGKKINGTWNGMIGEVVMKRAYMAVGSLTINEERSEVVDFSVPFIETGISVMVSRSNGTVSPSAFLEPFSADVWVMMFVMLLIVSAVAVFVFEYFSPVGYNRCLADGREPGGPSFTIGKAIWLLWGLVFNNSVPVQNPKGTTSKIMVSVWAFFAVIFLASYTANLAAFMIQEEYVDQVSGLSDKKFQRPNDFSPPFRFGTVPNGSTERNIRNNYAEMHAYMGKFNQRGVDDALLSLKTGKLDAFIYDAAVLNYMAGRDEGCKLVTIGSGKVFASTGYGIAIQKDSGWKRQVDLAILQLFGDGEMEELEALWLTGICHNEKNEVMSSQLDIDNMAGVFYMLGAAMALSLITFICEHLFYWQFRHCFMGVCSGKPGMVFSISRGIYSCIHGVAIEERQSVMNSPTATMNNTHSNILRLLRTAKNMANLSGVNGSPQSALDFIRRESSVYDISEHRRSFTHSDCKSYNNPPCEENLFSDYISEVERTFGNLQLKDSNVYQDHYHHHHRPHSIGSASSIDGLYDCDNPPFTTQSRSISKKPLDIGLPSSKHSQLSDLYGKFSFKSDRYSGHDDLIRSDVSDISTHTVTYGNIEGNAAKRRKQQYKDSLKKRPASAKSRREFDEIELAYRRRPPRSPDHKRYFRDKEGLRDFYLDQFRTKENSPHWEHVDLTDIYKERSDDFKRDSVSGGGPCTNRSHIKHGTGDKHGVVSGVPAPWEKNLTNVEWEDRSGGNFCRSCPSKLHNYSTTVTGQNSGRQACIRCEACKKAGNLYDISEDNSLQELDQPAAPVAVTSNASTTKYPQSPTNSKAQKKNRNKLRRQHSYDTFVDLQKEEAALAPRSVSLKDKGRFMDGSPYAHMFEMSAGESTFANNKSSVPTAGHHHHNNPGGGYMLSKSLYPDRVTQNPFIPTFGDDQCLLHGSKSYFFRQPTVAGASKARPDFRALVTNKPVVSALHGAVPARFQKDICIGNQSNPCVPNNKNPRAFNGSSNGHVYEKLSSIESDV
GluN1/2B NMDA receptor, sequence (Q13224 27-1484, other chains not shown): as above
GluN1/2A, sequence (Q12879 23-1464, other chains not shown): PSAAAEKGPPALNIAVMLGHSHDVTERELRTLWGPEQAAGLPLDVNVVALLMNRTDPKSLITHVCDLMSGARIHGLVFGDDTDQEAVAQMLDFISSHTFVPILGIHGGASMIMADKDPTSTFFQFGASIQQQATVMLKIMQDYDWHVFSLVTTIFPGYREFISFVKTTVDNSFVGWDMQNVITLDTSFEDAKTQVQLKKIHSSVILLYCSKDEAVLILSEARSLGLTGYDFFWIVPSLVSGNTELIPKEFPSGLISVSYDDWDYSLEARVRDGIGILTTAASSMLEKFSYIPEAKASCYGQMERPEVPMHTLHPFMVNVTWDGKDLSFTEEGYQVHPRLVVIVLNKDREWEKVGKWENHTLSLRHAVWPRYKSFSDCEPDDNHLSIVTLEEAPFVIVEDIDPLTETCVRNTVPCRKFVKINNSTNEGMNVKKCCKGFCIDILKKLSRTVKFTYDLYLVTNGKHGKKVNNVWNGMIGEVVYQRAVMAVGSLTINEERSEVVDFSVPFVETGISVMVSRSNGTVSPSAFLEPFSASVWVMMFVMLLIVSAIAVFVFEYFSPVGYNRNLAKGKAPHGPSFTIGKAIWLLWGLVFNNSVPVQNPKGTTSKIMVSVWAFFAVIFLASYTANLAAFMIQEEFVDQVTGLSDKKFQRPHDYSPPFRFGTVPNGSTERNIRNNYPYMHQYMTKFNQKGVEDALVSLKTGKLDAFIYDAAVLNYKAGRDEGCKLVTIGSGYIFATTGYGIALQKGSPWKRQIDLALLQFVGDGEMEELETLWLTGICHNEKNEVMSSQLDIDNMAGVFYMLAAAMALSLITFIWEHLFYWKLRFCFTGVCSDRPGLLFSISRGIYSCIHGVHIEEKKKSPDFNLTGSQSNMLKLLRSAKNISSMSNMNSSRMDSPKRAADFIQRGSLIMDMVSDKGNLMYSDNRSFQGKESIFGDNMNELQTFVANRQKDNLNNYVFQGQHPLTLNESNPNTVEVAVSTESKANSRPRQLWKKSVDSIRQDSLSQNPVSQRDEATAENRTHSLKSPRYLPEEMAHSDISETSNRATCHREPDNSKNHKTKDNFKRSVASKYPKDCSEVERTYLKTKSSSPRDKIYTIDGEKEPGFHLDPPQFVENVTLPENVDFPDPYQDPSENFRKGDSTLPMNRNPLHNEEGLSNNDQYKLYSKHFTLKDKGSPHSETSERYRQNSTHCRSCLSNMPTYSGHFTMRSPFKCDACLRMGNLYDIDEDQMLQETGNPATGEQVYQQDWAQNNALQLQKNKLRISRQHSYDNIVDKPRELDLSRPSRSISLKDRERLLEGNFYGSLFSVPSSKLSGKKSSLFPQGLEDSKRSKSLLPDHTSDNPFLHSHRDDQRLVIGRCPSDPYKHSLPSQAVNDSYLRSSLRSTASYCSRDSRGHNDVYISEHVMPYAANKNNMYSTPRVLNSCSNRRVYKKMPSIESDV

Average Response (% inhibition), 1/2A [1]: −31.9381 % inhibition
Average Response (% inhibition), 1/2B [2]: −19.0618 % inhibition
Average Response (% inhibition), TH [3]: −11.9509 % inhibition
SMILES: O=C(NC(=S)N1CCCCC1c1cccnc1)c1ccc(Cl)c(F)c1 (stereo not drawn) [Compound 9]

Average Response (% inhibition), 1/2A [1]: −21.076 % inhibition
Average Response (% inhibition), 1/2B [2]: 6.739 % inhibition
Average Response (% inhibition), TH [3]: 7.444 % inhibition
SMILES: O=C(NC(=S)N1CCCCC1c1cccnc1)c1ccc(CCCF)cc1 (stereo not drawn) [Compound 6]

Average Response (% inhibition), 1/2A [1]: 7.117 % inhibition
Average Response (% inhibition), 1/2B [2]: 9.468 % inhibition
Average Response (% inhibition), TH [3]: −2.571 % inhibition
SMILES: O=C(NC(=S)N1CCCCC1c1cccnc1)c1ccc(C2CC2)cc1 (stereo not drawn) [Compound 5]

Average Response (% inhibition), 1/2A [1]: 0.4959 % inhibition
Average Response (% inhibition), 1/2B [2]: 6.998 % inhibition
Average Response (% inhibition), TH [3]: 8.377 % inhibition
SMILES: COCCCc1ccc(C(=O)NC(=S)N2CCCCC2c2cccnc2)cc1 (stereo not drawn) [Compound 8]

Average Response (% inhibition), 1/2A [1]: −3.81 % inhibition
Average Response (% inhibition), 1/2B [2]: −56.1908 % inhibition
Average Response (% inhibition), TH [3]: −3.494 % inhibition
SMILES: O=C(NC(=S)N1CCCCC1c1cccnc1)c1cccc(F)n1 (stereo not drawn) [Compound 40]

Average Response (% inhibition), 1/2A [1]: −76.1696 % inhibition
Average Response (% inhibition), 1/2B [2]: −14.5863 % inhibition
Average Response (% inhibition), TH [3]: −3.954 % inhibition
SMILES: O=C(NC(=S)N1CCCCC1c1cccnc1)c1ccc(C(F)(F)F)cc1 (stereo not drawn) [Compound 2]

Average Response (% inhibition), 1/2A [1]: 20.43 % inhibition
Average Response (% inhibition), 1/2B [2]: 5.755 % inhibition
Average Response (% inhibition), TH [3]: 4.722 % inhibition
SMILES: O=C(NC(=O)N1CCCCC1c1cccnc1)c1ccc(F)cc1 (stereo not drawn) [Compound 4]

effect on GluN1/2A (DRC) ([4]; 10 μM glycine and 10 μM glutamate, EC50 ND, n=6): minimally inhibited
change of glycine potency on GluN1/2A ([4]; 30 uM CNS4, glutamate 100 uM): increase in glycine potency
change of glutamate potency on GluN1/2A ([4]; 30 uM CNS4, glycine 100 uM): increase in glutamate potency
activity on GluN1/2A (averaged dose response curve) ([4]; 100 μM glycine and 100 μM glutamate, EC50 not determined, n=3): minimal activity
change of glycine potency on GluN1/2B ([5]; 30 uM CNS4, glutamate 100 uM): increase in glycine potency
activity on GluN1/2B (averaged dose response curve) ([5]; 100 μM glycine and 100 μM glutamate, EC50 not determined, n=4): minimal activity
EC50 ([5]; read-out: EC50 of potentiation of GluN1/2B (averaged and normalized DRC)): 8.67 ± 2.77 µM
EC50 ([6]; 10 μM glycine and 10 μM glutamate, n=6, read-out: EC50 of potentiation of GluN1/2A/2B (averaged and normalized DRC)): 39 ± 22.4 µM
change of glycine potency on GluN1/2A/2B ([6]; 30 uM CNS4, glutamate 100 uM): increase in glycine potency
change of glutamate potency on TH (GluN1/2A/2B) ([6]; 30 uM CNS4, glycine 100 uM): increase in glutamate potency
effect on agonist induced current in GluN1/2A/2B in three sequences of application ([6]; 100 μM CNS004, 100 μM glycine+100 μM glutamate, co-application, agonist pre-application, CNS004 pre-application): potentiation
EC50 ([6]; 100 μM glycine and 100 μM glutamate, n=5, read-out: EC50 of potentiation of GluN1/2A/2B (averaged dose response curve)): 160 ± 15.4 µM
receptor activation in the absence of agonist glutamate or glycine ([6]; recombinant GluN1/2A, GluN1/2B and GluN1/2A/2B traces (FIG. 1E), no agonist): did not activate the receptor
effect on GluN1/2C (DRC) [7]: no activity
effect on GluN1/2D (DRC) [8]: minimally inhibited
effect of co-application with agonist on steady-state currents, GluN1/2A ([9]; 30 μM glycine and 100 μM glutamate): potentiates steady-state currents
effect on 1/2A receptor currents at reduced glutamate ([9]; 100 μM glycine and 300 nM glutamate): largely potentiated
effect of co-application with agonist on steady-state currents, GluN1/2A/2B ([10]; 100 μM CNS004, 30 μM glycine and 100 μM glutamate): potentiates steady-state currents
effect on 1/2A/2B currents at reduced glutamate ([10]; 100 μM CNS004, 100 μM glycine and 300 nM glutamate): inhibits
effect of CNS004 pre-application on steady-state currents, GluN1/2A/2B ([10]; 100 μM CNS004 pre-application, 30 μM glycine and 100 μM glutamate): steep reduction in steady-state currents
SMILES: O=C(NC(=S)N1CCCCC1c1cccnc1)c1ccc(F)cc1 (stereo not drawn) [CNS004, 4-Fluoro-N-(2-(pyridin-3-yl)piperidine-1-carbonothioyl)benzamide]
effect on glycine and/or glutamate potency in GluN1/2A/2B (FIGS. 15A-15H) ([6]; 30 μM and 100 μM CNS004): increases Glycine and/or Glutamate Potency
effect of pre-application of CNS004 alone on agonist induced current response ([6]; recombinant GluN1/2A, GluN1/2B and GluN1/2A/2B traces (FIG. 1E)): did not change the agonist induced current response
effect of CNS004 pre-application on desensitization, GluN1/2A/2B ([10]; 100 μM CNS004 pre-application, 30 μM glycine and 100 μM glutamate, GluN1/2A/2B only): promotes desensitization

selectivity for GluN1/2A/2B receptor (FIG. 9G) ([6]; GluN1/2B selective antagonist): intermediate selectivity
SMILES: CC(C(O)c1ccc(O)cc1)N1CCC(Cc2ccccc2)CC1 (stereo not drawn) [ifenprodil, reference compound]

Average Response (% inhibition), 1/2A [1]: −1.858 % inhibition
Average Response (% inhibition), 1/2B [2]: 3.872 % inhibition
Average Response (% inhibition), TH [3]: 16.4617 % inhibition
SMILES: O=C(NC(=S)N1CCCCC1c1cccnc1)c1ccc(P(=O)(O)O)cc1 (stereo not drawn) [Compound 7]

Average Response (% inhibition), 1/2A [1]: −52.246 % inhibition
Average Response (% inhibition), 1/2B [2]: −45.1553 % inhibition
Average Response (% inhibition), TH [3]: −13.1155 % inhibition
SMILES: Fc1ccc(C(=S)NC(=S)N2CCCCC2c2cccnc2)cc1 (stereo not drawn) [Compound 3]

Average Response (% inhibition), 1/2A [1]: 15.8054 % inhibition
Average Response (% inhibition), 1/2B [2]: 0.6785 % inhibition
Average Response (% inhibition), TH [3]: 27.54 % inhibition
SMILES: COc1cccc(C(=O)NC(=S)N2CCCCC2c2cccnc2)c1OC (stereo not drawn) [Compound 41]
